One data set deals with PDE V isoenzyme (Homo sapiens, UniProt O76074). The data set can be described thus: PDE V isoenzyme inhibition. The class given is biochemical. The following applies: concentration required to provide 50% inhibition of PDE V isoenzyme. The source says:
Forms 1 and 2 of Compound 13 are each useful for inhibiting PDE V isoenzymes. Their isoenzyme activities (potencies) and isoenzyme selectivities can be measured by the PDE V IC50 value, which is the concentration (in nM) of compound required to provide 50% inhibition of PDE V isoenzyme. […] Similarly, an IC50 value may be obtained for other PDE isoenzymes, such as the PDE VI isoenzyme. Isoenzyme selectivity in this respect may be defined as the activity of a PDE inhibitor compound for a particular PDE isoenzyme as opposed to another PDE isoenzyme, for example, the activity of a compound to inhibit a PDE V isoenzyme compared to the activity of the same compound to inhibit a PDE VI isoenzyme.

Data set [1] is described as follows: Water solubility of the polymorphs. The format is physicochemical.
The nature of data set [2]: Thermodynamic stability of the polymorphs. The class given is physicochemical. The conditions noted are these: at process temperatures. On the procedure: The two polymorphs also further differ in their water solubilities (Form 1: about 50 μg/mL vs. Form 2: about 30 μg/mL). […] Form 1 can equilibrate to Form 2 when slurried in one of the Form 2 crystallizing solvents (e.g., alcohol, nitrile, ester, etc.). For example, when a mixture of Form 1 of Compound 13 and Form 2 of Compound 13 is suspended in an organic crystallizing solvent (e.g., ethyl acetate, isopropanol, acetonitrile, and the like), and stored for an extended period of time (e.g., greater than or equal to about 10 hours), the Form 1 component of the mixture will convert to Form 2 of Compound 13.

In brackets after ≈: the same amount, converted by molar mass.

The term IC50 denotes the concentration at which inhibition is half-maximal. A higher IC50 goes with a need for much substance. For orientation: solubility means how much of the substance goes into solution per volume. A lower solubility goes with little dissolved substance. Regarding `CCn1c(=O)c2c(nc(N[C@@H]3CCC[C@H]3O)n2Cc2ccc(OC)c(Br)c2)n(CCO)c1=O` [Form 1 of Compound 13, 1-ethyl-3,7-dihydro-8-[(1R,2R) -(hydroxycyclopentyl)amino]-3-(2-hydroxyethyl)-7-[(3-bromo-4-methoxyphenyl)methyl]-1H-Purine-2,6-dione], the IC50 against PDE V isoenzyme was 2 to 3 nM. In data set [1], this molecule registered a solubility of approximately 50 µg/mL (≈ 95.7 µM).
As for `CCn1c(=O)c2c(nc(N[C@@H]3CCC[C@H]3O)n2Cc2ccc(OC)c(Br)c2)n(CCO)c1=O` [Form 2 of Compound 13, 1-ethyl-3,7-dihydro-8-[(1R,2R) -(hydroxycyclopentyl)amino]-3-(2-hydroxyethyl)-7-[(3-bromo-4-methoxyphenyl)methyl]-1H-Purine-2,6-dione], in data set [1], the water solubility entry was “about 30 μg/mL”. For the same molecule, the thermodynamic stability entry in data set [2] is recorded as “more thermodynamically stable than Form 1 of Compound 13”.

(Values after patent US7192962B2, “Xanthine phosphodiesterase V inhibitor polymorphs” (Schering Corporation, priority 2002, dated 2007).)
